Our source for the melting point values is US7511041B2, “Fused azole-pyrimidine derivatives” (Bayer Pharmaceuticals Corporation, priority 2002, dated 2009).

By melting point is commonly meant the temperature, or range, at which the solid turns liquid.

Structures are written as SMILES. Where a name gives a salt, the structure may show the parent alone.

Regarding `COc1cc2c(cc1OC)C1=NCCN1C(/C=C(\O)c1cccnc1)=N2` (as salt: hydrochloride) [Example 1-2, (Z)-2-(8,9-Dimethoxy-2,3-dihydroimidazo[1,2-c]quinazolin-5-yl)-1-(3-pyridinyl)-ethenol hydrochloride], the melting point was > 300 °C. For `COc1c(O)ccc2c1N=C(/C=C(\O)c1cccnc1)N1CCN=C21` (as salt: hydrochloride) [Example 1-4, 5-(2-Hydroxy-2-pyridin-3-ylvinyl)-7-methoxy-2,3-dihydroimidazo[1,2-c]quinazolin-8-ol hydrochloride] the value was 245 °C.

In turn, `COc1c(OCCCC(=O)O)ccc2c1N=C(/C=C(\O)c1cccnc1)N1CCN=C21` (as salt: hydrochloride) [Example 1-7, 4-{[5-(2-Hydroxy-2-pyridin-3-ylvinyl)-7-methoxy-2,3-dihydroimidazo[1,2-c]quinazolin-8-yl]oxy}butanoic acid hydrochloride] gave a melting point of 249 to 251 °C. The same measure for `O=C(NC1=Nc2ccccc2C2=NCCN12)c1cccnc1` (as salt: hydrochloride) [Example 2-2, N-(2,3-Dihydroimidazo[1,2-c]quinazolin-5-yl)nicotinamide hydrochloride]: 289 °C (dec.). For `O/C(=C\c1nc2ccccc2c2nccn12)c1cccs1` (as salt: hydrochloride) [Example 3-1, (Z)-2-Imidazo[1,2-c]quinazolin-5-yl-1-(2-thienyl)ethenol] the value was 263 °C (dec.). The same measure for `O=C(Nc1nc2ccccc2c2nccn12)c1cccnc1` (as salt: hydrochloride) [Example 4-2, N-Imidazo[1,2-c]quinazolin-5-ylnicotinamide hydrochloride]: 228 °C (dec.); for `COc1ccc2c(c1OC)N=C(/C=C(\O)c1cccnc1)N1CCN=C21.Cl` [Example 1-11]: 249 to 250 °C. With `COc1c(OCCO)ccc2c1N=C(/C=C(\O)c1cccnc1)N1CCN=C21.Cl` [Example 1-17], the melting point was 215 °C (dec.). For `COc1c(OCC(N)=O)ccc2c1N=C(/C=C(\O)c1cccnc1)N1CCN=C21.Cl` [Example 1-24] the value was 235 °C (dec.); for `COc1c(OCC(=O)N(C)C)ccc2c1N=C(/C=C(\O)c1cccnc1)N1CCN=C21.Cl` [Example 1-28], 205 °C (dec.); for `COc1c(OCC(=O)N2CCOCC2)ccc2c1N=C(/C=C(\O)c1cccnc1)N1CCN=C21.Cl` [Example 1-30], 240 to 241 °C.

`COc1c(C)ccc2c1N=C(/C=C(\O)c1ccc3[nH]cnc3c1)N1CCN=C21.Cl` [Example 1-35] showed a melting point of 270 °C. The same measure for `COc1ccc2c(c1OCCN1CCOCC1)N=C(/C=C(\O)c1cccnc1)N1CCN=C21.Cl` [Example 1-37]: 215 °C; for `Cc1ccc2c(c1OCCN1CCOCC1)N=C(/C=C(\O)c1cccnc1)N1CCN=C21.Cl` [Example 1-40]: 256 °C (dec.). Take `COc1cc(OC)c2c(c1)C1=NCCN1C(/C=C(\O)c1cccnc1)=N2.Cl` [Example 1-43]: the melting point is 290 °C (dec.). The same measure for `Cc1cc(Br)c2c(c1)C1=NCCN1C(/C=C(\O)c1ccc3[nH]cnc3c1)=N2.Cl` [Example 1-48]: > 285 °C; for `COc1cc2c(cc1OC)C1=NCCN1C(/C=C(\O)c1ccc3[nH]cnc3c1)=N2` [Example 1-56]: 212 to 215 °C. The same measure for `COc1cc2c(cc1OC)C1=NCCN1C(/C=C(\O)c1cccs1)=N2.Cl` [Example 1-59]: 266 to 268 °C; for `COc1cc2c(cc1OC)C1=NCCN1C(/C=C(\O)c1sc(C)nc1C)=N2.Cl` [Example 1-61]: 268 to 271 °C; for `COc1cc2c(c(OC)c1C)N=C(/C=C(\O)c1cccnc1)N1CCN=C21.Cl` [Example 1-63]: 285 °C. The same measure for `COc1cc2c(c(OC)c1C)N=C(/C=C(\O)c1ccc(NC(C)=O)nc1)N1CCN=C21.Cl` [Example 1-65]: > 285 °C; for `COc1cc2c(c(OC)c1C)N=C(/C=C(\O)c1ccc3[nH]cnc3c1)N1CCN=C21.Cl` [Example 1-67]: > 285 °C; for `COc1cccc2c1N=C(/C=C(\O)c1cccnc1)N1CCN=C21.Cl` [Example 1-69]: 285 °C. As to `Cl.O/C(=C\C1=Nc2c(Br)cccc2C2=NCCN12)c1cccnc1` [Example 1-74], the melting point was determined as 246 °C. For `Cc1cccc2c1N=C(/C=C(\O)c1cccnc1)N1CCN=C21.Cl` [Example 1-76] the value was > 290 °C.

With `CC(=O)Nc1ccc(/C(O)=C/C2=Nc3c(C)cccc3C3=NCCN23)cn1.Cl` [Example 1-78], the melting point is > 285 °C. The same measure for `Cl.O/C(=C\C1=Nc2c(cccc2C(F)(F)F)C2=NCCN12)c1cccnc1` [Example 1-81]: > 290 °C; for `Cl.O/C(=C\C1=Nc2c(OCCN3CCOCC3)cccc2C2=NCCN12)c1cccnc1` [Example 1-85]: 261 to 262 °C; for `Cl.O/C(=C\C1=Nc2c(OCC3CC3)cccc2C2=NCCN12)c1cccnc1` [Example 1-89]: > 300 °C.

As for `Cl.O/C(=C\C1=Nc2cc(N3CCOCC3)ccc2C2=NCCN12)c1cccnc1` [Example 1-95], the melting point was > 300 °C. The same measure for `CC(=O)Nc1ccc(/C(O)=C/C2=Nc3cc(N4CCOCC4)ccc3C3=NCCN23)cn1.Cl` [Example 1-97]: 246 °C; for `Cl.O/C(=C\C1=Nc2cc(N3CCOCC3)ccc2C2=NCCN12)c1cncc(O)c1` [Example 1-99]: 312 °C (dec.). Take `Cl.O/C(=C\C1=Nc2cc(N3CCOCC3)ccc2C2=NCCN12)c1ccc2[nH]cnc2c1` [Example 1-101]: the melting point was 286 °C (dec.). `O/C(=C\C1=Nc2cc(N3CCN(Cc4ccccc4)CC3)ccc2C2=NCCN12)c1cccnc1` [Example 1-103] gave a melting point of 257 °C. For `CC(=O)Nc1ccc(/C(O)=C/C2=Nc3cc(N4CCN(C)CC4)ccc3C3=NCCN23)cn1.Cl` [Example 1-106] the value was 280 °C (dec.); for `Cl.O/C(=C\C1=Nc2cc(CN3CCOCC3)ccc2C2=NCCN12)c1cccnc1` [Example 1-112], 242 °C; for `CC(=O)Nc1ccc(/C(O)=C/C2=Nc3cc(CN4CCOCC4)ccc3C3=NCCN23)cn1.Cl` [Example 1-114], 260 °C. For `O/C(=C\C1=Nc2cc(Cl)ccc2C2=NCCN12)c1cccnc1` [Example 1-117] the value was 280 °C (dec.); for `Cc1ccc2c(c1)N=C(/C=C(\O)c1cccnc1)N1CCN=C21.Cl` [Example 1-120], > 330 °C.

For `COc1ccc2c(c1)C1=NCCN1C(/C=C(\O)c1cccnc1)=N2.Cl` [Example 1-127], the melting point is > 300 °C. Regarding `O/C(=C\C1=Nc2ccc(Cl)cc2C2=NCCN12)c1cccnc1` [Example 1-130], the melting point is > 330 °C. For `Cc1ccc2c(c1)C1=NCCN1C(/C=C(\O)c1cccnc1)=N2.Cl` [Example 1-132] the value was > 290 °C; for `Cl.O/C(=C\C1=Nc2ccccc2C2=NCCN12)c1cccnc1` [Example 1-135], 260 °C (dec.).

As to `Cc1ccc(/C(O)=C/C2=Nc3ccccc3C3=NCCN23)cn1.Cl` [Example 1-137], the melting point is > 300 °C. The same measure for `Cl.O/C(=C\C1=Nc2ccccc2C2=NCCN12)c1cnccn1` [Example 1-142]: 217 to 222 °C; for `Cl.O/C(=C\C1=Nc2ccccc2C2=NCCN12)c1ccco1` [Example 1-144]: > 300 °C. `Cl.O/C(=C\C1=Nc2ccccc2C2=NCCN12)c1cccs1` [Example 1-147]: the melting point was > 300 °C. For `Cl.O/C(=C\C1=Nc2ccccc2C2=NCCN12)c1ccno1` [Example 1-153] the value was 245 °C (dec.); for `Cl.O/C(=C\C1=Nc2ccccc2C2=NCCN12)c1ccccn1` [Example 1-174], 235 to 240 °C.

As for `Cl.O/C(=C\C1=Nc2ccccc2C2=NCCN12)c1ccncc1` [Example 1-176], the melting point is 235 °C (dec.).

As for `Cl.O/C(=C\C1=Nc2ccccc2C2=NCCN12)c1csc2ccccc12` [Example 1-181], the melting point is > 300 °C. For `COc1c(OCc2nn[nH]n2)ccc2c1N=C(/C=C(\O)c1cccnc1)N1CCN=C21.Cl` [Example 1-197] the value was 217 to 218 °C. `Cl.O/C(=C\C1=Nc2c(CN3CCOCC3)cccc2C2=NCCN12)c1cccnc1` [Example 1-207]: the melting point is 259 °C (dec.).

As for `CC(=O)Nc1ccc(/C(O)=C/C2=Nc3c(CN4CCOCC4)cccc3C3=NCCN23)cn1.Cl` [Example 1-209], the melting point is > 260 °C. For `Cc1ccc(C(=O)NC2=Nc3cc(N4CCOCC4)ccc3C3=NCCN23)cn1.Cl` [Example 2-14] the value was 267 °C (dec.); for `CC(=O)Nc1ccc(C(=O)NC2=Nc3cc(N4CCOCC4)ccc3C3=NCCN23)cc1` [Example 2-15], 227 °C. The same measure for `COc1ccc2c(c1)N=C(NC(=O)c1cccnc1)N1CCN=C21.Cl` [Example 2-21]: 292 °C (dec.); for `COc1ccc2c(c1)N=C(NC(=O)c1ccc(N)nc1)N1CCN=C21.Cl` [Example 2-24]: 273 °C (dec.). The same measure for `COc1ccc2c(c1)N=C(NC(=O)c1ccc3[nH]cnc3c1)N1CCN=C21.Cl` [Example 2-26]: 233 °C; for `Cc1ccc2c(c1)N=C(NC(=O)c1cccnc1)N1CCN=C21.Cl` [Example 2-28]: 315 °C; for `Cc1ccc2c(c1)N=C(NC(=O)c1cccs1)N1CCN=C21.Cl` [Example 2-32]: 276 °C.

`Cl.O=C(NC1=Nc2cc(Cl)ccc2C2=NCCN12)c1ccc2[nH]cnc2c1` [Example 2-40] returned a melting point of 270 °C.

For `COc1ccc2c(c1OC)N=C(NC(=O)c1ccc3[nH]cnc3c1)N1CCN=C21.Cl` [Example 2-50], the melting point is 278 °C (dec.).
